In brackets after ≈: the same amount, converted by molar mass.
Columns and labels:
Experiment in all cases: Antifungal MIC, broth dilution
[1] = test system: A. niger ATCC 16404; format: cell-based, Aspergillus niger; conditions: end point 48 hours; for MIC50: Aspergillus niger, ATCC16404, RPMI 1640 with MOPS, read-out: An01 MIC50; for An01 MIC50: RPMI 1640 with MOPS
Method: (§1) The compounds of Formula 1 were tested for antifungal activity against Candida albicans, Aspergillus niger and Fusarium proliferatum. In vitro evaluation of antifungal activity was performed by determining the minimum inhibitory concentration (MIC) following standard methods (CLSI: Reference method for broth dilution antifungal susceptibility testing of yeasts; Approved standard, second edition M27-A2, 2002; CLSI: Reference method for broth dilution antifungal susceptibility testing of filamentous fungi; Approved standard M38-A, 2002). Anti-fungal susceptibility testing of these anti-fungal compounds was done by broth dilution method using RPMI 1640 medium with MOPS buffer. Known anti-fungal agents like fluconazole and amphotericin-B were used as positive control. End points were determined after 48 hours visually and by using spectrophotometer wherever necessary. Different dilutions were tried and various sets of experiments performed. The activity parameters are enumerated in Table 5.

[2] = test system: C. albicans ATCC 24433; format: cell-based, Candida albicans; conditions: end point 48 hours; for MIC80 / MIC50: Candida albicans, ATCC24433, RPMI 1640 with MOPS; for MIC80: read-out: Ca01 A: MIC80; for MIC50: read-out: Ca01 B: MIC50; for Ca01 A: MIC80 / Ca01 B: MIC50: RPMI 1640 with MOPS
Method: as §1

[3] = test system: A. fumigatus ATCC 46645; format: cell-based; conditions: end point 48 hours; for MIC50: Aspergillus fumigatus, ATCC46645, RPMI 1640 with MOPS, read-out: Afm01 MIC50; for Afm01 MIC50: RPMI 1640 with MOPS
[4] = test system: F. proliferatum ATCC 10052; format: cell-based, Fusarium proliferatum; conditions: end point 48 hours; for MIC50: Fusarium proliferatum, ATCC10052, RPMI 1640 with MOPS, read-out: Fp01 MIC50; for Fp01 MIC50: RPMI 1640 with MOPS
Method: as §1

[5] = test system: C. neoformans ATCC 34664; format: cell-based; conditions: end point 48 hours; for MIC50: Cryptococcus neoformans, ATCC34664, RPMI 1640 with MOPS, read-out: Cn01 MIC50; for Cn01 MIC50: RPMI 1640 with MOPS
[6] = test system: C. krusei ATCC 6258; format: cell-based; conditions: end point 48 hours; for MIC50: Pichia kudriavzevii, ATCC6258, RPMI 1640 with MOPS, read-out: Ck01 MIC50; for Ck01 MIC50: RPMI 1640 with MOPS
[7] = test system: C. tropicalis ATCC 750; format: cell-based; conditions: end point 48 hours; for MIC50: Candida tropicalis, ATCC750, RPMI 1640 with MOPS, read-out: Ct01 MIC50; for Ct01 MIC50: RPMI 1640 with MOPS
[8] = test system: C. glabrata ATCC 90030; format: cell-based; conditions: end point 48 hours; for MIC50: Nakaseomyces glabratus, ATCC90030, RPMI 1640 with MOPS, read-out: Cg01 MIC50; for Cg01 MIC50: RPMI 1640 with MOPS

SMILES	MIC50 [1]	MIC80 [2]	MIC50 [2]	MIC50 [3]	MIC50 [4]	MIC50 [5]	MIC50 [6]	MIC50 [7]	MIC50 [8]	An01 MIC50 [1]	Ca01 A: MIC80 [2]	Ca01 B: MIC50 [2]	Afm01 MIC50 [3]	Fp01 MIC50 [4]	Cn01 MIC50 [5]	Ck01 MIC50 [6]	Ct01 MIC50 [7]	Cg01 MIC50 [8]
COc1ccc(/C=C/C(=O)c2ccc(OCC(O)(Cn3cncn3)c3ccc(F)cc3)cc2)cc1 (stereo not drawn) [Compound 1A-10]	> 4 µg/mL	2 µg/mL (≈ 4.22 µM)	0.25 µg/mL (≈ 0.528 µM)	> 4 µg/mL	> 4 µg/mL	0.5 µg/mL (≈ 1.06 µM)	4 µg/mL (≈ 8.45 µM)	4 µg/mL (≈ 8.45 µM)	0.5 µg/mL (≈ 1.06 µM)	–	–	–	–	–	–	–	–	–
O=C(/C=C/c1c2ccccc2cc2ccccc12)c1ccc(OCC(O)(Cn2cncn2)c2ccc(F)cc2F)cc1 (stereo not drawn) [Compound 1A-15]	> 2 µg/mL	> 2 µg/mL	> 2 µg/mL	> 2 µg/mL	> 2 µg/mL	2 µg/mL (≈ 3.56 µM)	> 2 µg/mL	> 2 µg/mL	2 µg/mL (≈ 3.56 µM)	–	–	–	–	–	–	–	–	–
CCCCCCCCOc1ccc(/C=C/C(=O)c2ccc(OCC(O)(Cn3cncn3)c3ccc(F)cc3F)cc2)cc1 (stereo not drawn) [Compound 1A-9]	–	–	–	–	–	–	–	–	–	>2 µg/mL	>2 µg/mL	>2 µg/mL	>2 µg/mL	>2 µg/mL	>2 µg/mL	>2 µg/mL	>2 µg/mL	>2 µg/mL
COC(COc1ccc(C(=O)/C=C/c2ccc(Cl)cc2Cl)cc1)(Cn1cncn1)c1ccc(F)cc1F (stereo not drawn) [Compound 1A-19, (E)-3-(2,4-dichlorophenyl)-1-(4-(2-(2,4-difluorophenyl)-2-methoxy-3-(1H-1,2,4-triazol-1-yl)propoxy)phenyl)prop-2-en-1-one]	> 4 µg/mL	> 4 µg/mL	1 µg/mL (≈ 1.84 µM)	> 4 µg/mL	> 4 µg/mL	> 4 µg/mL	> 4 µg/mL	> 4 µg/mL	1 µg/mL (≈ 1.84 µM)	–	–	–	–	–	–	–	–	–
COc1cc(/C=C/C=O)ccc1OCC(O)(Cn1cncn1)c1ccc(F)cc1F (stereo not drawn) [Compound 1A-29]	> 64 µg/mL	0.5 µg/mL (≈ 1.2 µM)	0.25 µg/mL (≈ 0.602 µM)	> 64 µg/mL	> 64 µg/mL	16 µg/mL (≈ 38.5 µM)	32 µg/mL (≈ 77 µM)	8 µg/mL (≈ 19.3 µM)	1 µg/mL (≈ 2.41 µM)	–	–	–	–	–	–	–	–	–
COc1ccc(C(=O)/C=C/c2ccc(OCC(O)(Cn3cncn3)c3ccc(F)cc3F)cc2)cc1 (stereo not drawn) [Compound 1A-20]	> 4 µg/mL	0.25 µg/mL (≈ 0.509 µM)	0.12 µg/mL (≈ 0.244 µM)	8 µg/mL (≈ 16.3 µM)	> 4 µg/mL	1 µg/mL (≈ 2.03 µM)	4 µg/mL (≈ 8.14 µM)	1 µg/mL (≈ 2.03 µM)	0.25 µg/mL (≈ 0.509 µM)	–	–	–	–	–	–	–	–	–
O=C(/C=C/c1cccs1)c1ccc(OC[C@](O)(Cn2cncn2)c2ccc(F)cc2F)cc1 [R-(−)-1A-13]	> 4 µg/mL	0.12 µg/mL (≈ 0.257 µM)	0.03 µg/mL (≈ 0.0642 µM)	> 4 µg/mL	> 4 µg/mL	0.5 µg/mL (≈ 1.07 µM)	2 µg/mL (≈ 4.28 µM)	0.12 µg/mL (≈ 0.257 µM)	0.03 µg/mL (≈ 0.0642 µM)	–	–	–	–	–	–	–	–	–
COc1ccc(/C=C/C(=O)c2ccc(OCC(O)(Cn3cncn3)c3ccc(Br)cc3)cc2)cc1 (stereo not drawn) [Compound 1A-11]	> 4 µg/mL	1 µg/mL (≈ 1.87 µM)	0.5 µg/mL (≈ 0.936 µM)	> 4 µg/mL	> 4 µg/mL	1 µg/mL (≈ 1.87 µM)	> 4 µg/mL	> 4 µg/mL	1 µg/mL (≈ 1.87 µM)	–	–	–	–	–	–	–	–	–
CCCCCCCCOc1ccc(C(=O)/C=C/c2ccc(OCC(O)(Cn3cncn3)c3ccc(F)cc3F)cc2)cc1 (stereo not drawn) [Compound 1A-24]	–	–	–	–	–	–	–	–	–	>4 µg/mL	8 µg/mL	4 µg/mL	>4 µg/mL	>4 µg/mL	>4 µg/mL	>4 µg/mL	>4 µg/mL	0.12 µg/mL
C=CCOC(COc1ccc(C(=O)/C=C/c2ccc(Cl)cc2Cl)cc1)(Cn1cncn1)c1ccc(F)cc1F (stereo not drawn) [Compound 1A-18, (E)-1-(4-(2-(Allyloxy)-2-(2,4-difluorophenyl)-3-(1H-1,2,4-triazol-1-yl)propoxy)phenyl)-3-(2,4-dichlorophenyl)prop-2-en-1-one]	> 4 µg/mL	> 4 µg/mL	> 4 µg/mL	> 4 µg/mL	> 4 µg/mL	> 4 µg/mL	> 4 µg/mL	> 4 µg/mL	> 4 µg/mL	–	–	–	–	–	–	–	–	–
Cn1cc(/C=C/C(=O)c2ccc(OCC(O)(Cn3cncn3)c3ccc(F)cc3F)cc2)c2ccccc21 (stereo not drawn) [Compound 1A-16]	> 4 µg/mL	0.5 µg/mL (≈ 0.972 µM)	0.25 µg/mL (≈ 0.486 µM)	> 4 µg/mL	> 4 µg/mL	4 µg/mL (≈ 7.77 µM)	> 4 µg/mL	2 µg/mL (≈ 3.89 µM)	2 µg/mL (≈ 3.89 µM)	–	–	–	–	–	–	–	–	–
O=C(/C=C/c1ccc(Cl)cc1)c1ccc(OCC(O)(Cn2cncn2)c2ccc(F)cc2)cc1 (stereo not drawn) [Compound 1A-12]	> 4 µg/mL	2 µg/mL (≈ 4.18 µM)	0.5 µg/mL (≈ 1.05 µM)	> 4 µg/mL	> 4 µg/mL	0.5 µg/mL (≈ 1.05 µM)	4 µg/mL (≈ 8.37 µM)	4 µg/mL (≈ 8.37 µM)	0.5 µg/mL (≈ 1.05 µM)	–	–	–	–	–	–	–	–	–
C[C@@H]1[C@H](O)[C@@H](C)/C=C/C=C/C=C/C=C/C=C/C=C/C=C/[C@H](O[C@@H]2O[C@H](C)[C@@H](O)[C@H](N)[C@@H]2O)C[C@@H]2O[C@](O)(C[C@@H](O)C[C@@H](O)[C@H](O)CC[C@@H](O)C[C@@H](O)CC(=O)O[C@H]1C)C[C@H](O)[C@H]2C(=O)O [AMB, amphotericin-B, reference compound]	–	–	–	–	–	–	–	–	–	0.25 µg/mL	0.25 µg/mL	0.25 µg/mL	0.5 µg/mL	2 µg/mL	0.5 µg/mL	0.5 µg/mL	0.5 µg/mL	0.25 µg/mL
CCCCCCCCCCCCCCC(=O)/C=C/c1ccc(OCC(O)(Cn2cncn2)c2ccc(F)cc2F)cc1 (stereo not drawn) [Compound 1A-27]	–	–	–	–	–	–	–	–	–	>1 µg/mL	>1 µg/mL	>1 µg/mL	>1 µg/mL	>1 µg/mL	>1 µg/mL	>1 µg/mL	>1 µg/mL	>1 µg/mL
OC(COc1ccc(-c2cc(-c3ccc(Cl)cc3Cl)[nH]n2)cc1)(Cn1cncn1)c1ccc(F)cc1F (stereo not drawn) [Compound 1D-1, 1-(4-(5-(2,4-dichlorophenyl)-1H-pyrazol-3-yl)phenoxy)-2-(2,4-difluorophenyl)-3-(1H-1,2,4-triazol-1-yl)propan-2-ol]	> 4 µg/mL	0.5 µg/mL (≈ 0.922 µM)	0.5 µg/mL (≈ 0.922 µM)	> 4 µg/mL	> 4 µg/mL	1 µg/mL (≈ 1.84 µM)	2 µg/mL (≈ 3.69 µM)	0.5 µg/mL (≈ 0.922 µM)	1 µg/mL (≈ 1.84 µM)	–	–	–	–	–	–	–	–	–
COc1cc(/C=C/C(=O)c2ccc(OCC(O)(Cn3cncn3)c3ccc(F)cc3F)cc2)cc(OC)c1 (stereo not drawn) [Compound 1A-4]	> 4 µg/mL	1 µg/mL (≈ 1.92 µM)	0.25 µg/mL (≈ 0.479 µM)	> 4 µg/mL	> 4 µg/mL	2 µg/mL (≈ 3.83 µM)	> 4 µg/mL	2 µg/mL (≈ 3.83 µM)	2 µg/mL (≈ 3.83 µM)	–	–	–	–	–	–	–	–	–
OC(COc1ccc(C2=NNC(c3ccc(Cl)cc3Cl)C2)cc1)(Cn1cncn1)c1ccc(F)cc1F (stereo not drawn) [Compound 1E-1, 1-(4-(5-(2,4-dichlorophenyl)-4,5-dihydro-1H-pyrazol-3-yl)phenoxy)-2-(2,4-difluorophenyl)-3-(1H-1,2,4-triazol-1-yl)propan-2-ol]	> 8 µg/mL	0.25 µg/mL (≈ 0.459 µM)	0.25 µg/mL (≈ 0.459 µM)	> 8 µg/mL	> 8 µg/mL	2 µg/mL (≈ 3.67 µM)	> 8 µg/mL	1 µg/mL (≈ 1.84 µM)	2 µg/mL (≈ 3.67 µM)	–	–	–	–	–	–	–	–	–

Source: patent US9512087B2, “Hybrid molecules containing pharmacophores of fluconazole as antifungal agents and their preparation” (Council for Scientific & Industrial Research, priority 2011, dated 2016)
